Source: ChEMBL document CHEMBL5518186, “Discovery of the cereblon-recruiting tubulin PROTACs effective in overcoming Taxol resistance in vitro and in vivo” (Eur J Med Chem, 2024)
pIC50: −log10 of the molar value. Calls of active or inactive are those of the source. The calls are words filed in the database; no cut-off is given here.

Key:
A549 [1] = assay: Antiproliferative activity against human A549 cells incubated for 72 hrs; assay type: functional, cell-based; details: A549, 72 h
A549/TR [2] = assay: Induction of cell cycle arrest in human A549/Taxol cells assessed as accumulation of cells at G0/G1 phase at 0.1 uM incubated for 24 hrs by PI staining based flow cytometry analysis (reference value: 77.86%); assay type: functional
A549/TR [3] = assay: Induction of cell cycle arrest in human A549/Taxol cells assessed as accumulation of cells at S phase at 0.1 uM incubated for 24 hrs by PI staining based flow cytometry analysis (reference value: 2.85%); assay type: functional
A549/TR [4] = assay: Induction of cell cycle arrest in human A549/Taxol cells assessed as accumulation of cells at G2/M phase at 0.1 uM incubated for 24 hrs by PI staining based flow cytometry analysis (reference value: 17.02%); assay type: functional
A549/TR [5] = assay: Induction of apoptosis in human A549/Taxol cells at 0.1 uM incubated for 48 hrs by Annexin V-FITC/PI staining based flow cytometry analysis; assay type: functional
A549/TR [6] = assay: Inhibition of cell growth in human A549/Taxol cells incubated for 72 hrs by SRB method; assay type: functional, cell-based
A549 [7] = assay: Induction of cell cycle arrest in human A549 cells assessed as accumulation of cells at G0/G1 phase at 0.02 uM incubated for 24 hrs by PI staining based flow cytometry analysis (reference value: 66.75%); assay type: functional
A549 [8] = assay: Induction of cell cycle arrest in human A549 cells assessed as accumulation of cells at S phase at 0.02 uM incubated for 24 hrs by PI staining based flow cytometry analysis (reference value: 2.85%); assay type: functional
A549 [9] = assay: Induction of cell cycle arrest in human A549 cells assessed as accumulation of cells at G2/M phase at 0.02 uM incubated for 24 hrs by PI staining based flow cytometry analysis (reference value: 31.86%); assay type: functional
A549/TR [10] = assay: Induction of cell cycle arrest in human A549/Taxol cells assessed as accumulation of cells at G0/G1 phase at 1 uM incubated for 24 hrs by PI staining based flow cytometry analysis (reference value: 77.86%); assay type: functional
A549/TR [11] = assay: Induction of cell cycle arrest in human A549/Taxol cells assessed as accumulation of cells at S phase at 1 uM incubated for 24 hrs by PI staining based flow cytometry analysis (reference value: 2.85%); assay type: functional
A549/TR [12] = assay: Induction of cell cycle arrest in human A549/Taxol cells assessed as accumulation of cells at G2/M phase at 1 uM incubated for 24 hrs by PI staining based flow cytometry analysis (reference value: 17.02%); assay type: functional
A549/TR [13] = assay: Induction of apoptosis in human A549/Taxol cells at 1 uM incubated for 48 hrs by Annexin V-FITC/PI staining based flow cytometry analysis; assay type: functional
A549 [14] = assay: Antitumor activity against human A549 cells xenografted in nude mouse assessed as decrease in tumor volume at 10 mg/kg, ip administered once every 2 days for 23 days by Vernier caliper method; assay type: functional, organism-based; details: time 23.0 day
A549 [15] = assay: Antitumor activity against human A549 cells xenografted in nude mouse assessed as decrease in tumor weight at 10 mg/kg, ip administered once every 2 days for 23 days by Vernier caliper method; assay type: functional, organism-based; details: time 23.0 day
A549 [16] = assay: Antitumor activity against human A549 cells xenografted in nude mouse assessed as tumor growth inhibition at 10 mg/kg, ip administered once every 2 days for 23 days by Vernier caliper method; assay type: functional; details: A549, 552 h, time 23 day, read-out: TGI
A549/TR [17] = assay: Antitumor activity against human A549/Taxol cells xenografted in nude mouse assessed as tumor growth inhibition at 10 mg/kg, ip administered once every 2 days for 23 days by Vernier caliper method; assay type: functional; details: 552 h, time 23 day, read-out: TGI
[18] = Toxicity in nude mouse xenografted with human A549 cells assessed as body weight loss at 10 mg/kg, ip administered once every 2 days for 23 days and measured every 3 days; assay type: organism-based; details: in vivo, 552 h, time 23 day
[19] = Toxicity in nude mouse xenografted with human A549/Taxol cells assessed as body weight loss at 10 mg/kg, ip administered once every 2 days for 23 days and measured every 3 days; assay type: organism-based, A549/TR; details: in vivo, 552 h, time 23 day

Row | SMILES | pIC50 (A549 [1]) | Activity (A549/TR [2]) [%] | Activity (A549/TR [3]) [%] | Activity (A549/TR [4]) [%] | Activity (A549/TR [5]) [%] | pIC50 (A549/TR [6]) | Activity (A549 [7]) [%] | Activity (A549 [8]) [%] | Activity (A549 [9]) [%] | Activity (A549/TR [10]) [%] | Activity (A549/TR [11]) [%] | Activity (A549/TR [12]) [%] | Activity (A549/TR [13]) [%] | Activity (A549 [14]) | Activity (A549 [15]) | inhibition in vivo at 10 mg/kg (A549 [16]) [%] | inhibition in vivo at 10 mg/kg (A549/TR [17]) [%] | Activity [18] | Activity [19]
1 | COc1ccc(/C=C\c2cc(OC)c(OC)c(OC)c2)cc1O [COMBRETASTATIN A4] | 8.30 | 21.17 | 17.89 | 64.76 | 26.9 | – | – | – | – | – | – | – | – | – | – | – | – | – | –
2 | CC(=O)O[C@H]1C(=O)[C@@]2(C)[C@H]([C@H](OC(=O)c3ccccc3)[C@]3(O)C[C@H](OC(=O)[C@H](O)[C@@H](NC(=O)c4ccccc4)c4ccccc4)C(C)=C1C3(C)C)[C@]1(OC(C)=O)CO[C@@H]1C[C@@H]2O [PACLITAXEL] | – | – | – | – | – | 5.99 | 10.8 | 6.1 | 83.1 | 20.43 | 5.77 | 74.23 | 22.7 | Active | Active | 28.5 | 52 | Non-Toxic | Non-Toxic
